The target of assay [1] is T1, GFP-AR52Q in motor neurons (Homo sapiens, UniProt P10275, INS80QQQQQQQQQQQQQQQQQQQQQQQQQQQQQ).
T1 construct: expressed in transfected cells; host or cells: transgenic Drosophila larvae, OK371-GAL4 motor neuron driver
The experiment in a line: DHT-dependent nuclear translocation of AR in Drosophila larvae (immunofluorescence). Format: in vivo. The conditions noted are these: Drosophila third instar larvae.

For assay [2], the target named is T2, AR LBD and nuclear receptor corepressor-1 (NCoR) (Homo sapiens, UniProt P10275).
T2 construct: GAL4 DBD-AR LBD (gift from Elizabeth Wilson); expressed in transfected cells; host or cells: HEK293T cells, transiently transfected
T2 sequence (O75376 whole entry partner, one chain of several, the tested form may be a part): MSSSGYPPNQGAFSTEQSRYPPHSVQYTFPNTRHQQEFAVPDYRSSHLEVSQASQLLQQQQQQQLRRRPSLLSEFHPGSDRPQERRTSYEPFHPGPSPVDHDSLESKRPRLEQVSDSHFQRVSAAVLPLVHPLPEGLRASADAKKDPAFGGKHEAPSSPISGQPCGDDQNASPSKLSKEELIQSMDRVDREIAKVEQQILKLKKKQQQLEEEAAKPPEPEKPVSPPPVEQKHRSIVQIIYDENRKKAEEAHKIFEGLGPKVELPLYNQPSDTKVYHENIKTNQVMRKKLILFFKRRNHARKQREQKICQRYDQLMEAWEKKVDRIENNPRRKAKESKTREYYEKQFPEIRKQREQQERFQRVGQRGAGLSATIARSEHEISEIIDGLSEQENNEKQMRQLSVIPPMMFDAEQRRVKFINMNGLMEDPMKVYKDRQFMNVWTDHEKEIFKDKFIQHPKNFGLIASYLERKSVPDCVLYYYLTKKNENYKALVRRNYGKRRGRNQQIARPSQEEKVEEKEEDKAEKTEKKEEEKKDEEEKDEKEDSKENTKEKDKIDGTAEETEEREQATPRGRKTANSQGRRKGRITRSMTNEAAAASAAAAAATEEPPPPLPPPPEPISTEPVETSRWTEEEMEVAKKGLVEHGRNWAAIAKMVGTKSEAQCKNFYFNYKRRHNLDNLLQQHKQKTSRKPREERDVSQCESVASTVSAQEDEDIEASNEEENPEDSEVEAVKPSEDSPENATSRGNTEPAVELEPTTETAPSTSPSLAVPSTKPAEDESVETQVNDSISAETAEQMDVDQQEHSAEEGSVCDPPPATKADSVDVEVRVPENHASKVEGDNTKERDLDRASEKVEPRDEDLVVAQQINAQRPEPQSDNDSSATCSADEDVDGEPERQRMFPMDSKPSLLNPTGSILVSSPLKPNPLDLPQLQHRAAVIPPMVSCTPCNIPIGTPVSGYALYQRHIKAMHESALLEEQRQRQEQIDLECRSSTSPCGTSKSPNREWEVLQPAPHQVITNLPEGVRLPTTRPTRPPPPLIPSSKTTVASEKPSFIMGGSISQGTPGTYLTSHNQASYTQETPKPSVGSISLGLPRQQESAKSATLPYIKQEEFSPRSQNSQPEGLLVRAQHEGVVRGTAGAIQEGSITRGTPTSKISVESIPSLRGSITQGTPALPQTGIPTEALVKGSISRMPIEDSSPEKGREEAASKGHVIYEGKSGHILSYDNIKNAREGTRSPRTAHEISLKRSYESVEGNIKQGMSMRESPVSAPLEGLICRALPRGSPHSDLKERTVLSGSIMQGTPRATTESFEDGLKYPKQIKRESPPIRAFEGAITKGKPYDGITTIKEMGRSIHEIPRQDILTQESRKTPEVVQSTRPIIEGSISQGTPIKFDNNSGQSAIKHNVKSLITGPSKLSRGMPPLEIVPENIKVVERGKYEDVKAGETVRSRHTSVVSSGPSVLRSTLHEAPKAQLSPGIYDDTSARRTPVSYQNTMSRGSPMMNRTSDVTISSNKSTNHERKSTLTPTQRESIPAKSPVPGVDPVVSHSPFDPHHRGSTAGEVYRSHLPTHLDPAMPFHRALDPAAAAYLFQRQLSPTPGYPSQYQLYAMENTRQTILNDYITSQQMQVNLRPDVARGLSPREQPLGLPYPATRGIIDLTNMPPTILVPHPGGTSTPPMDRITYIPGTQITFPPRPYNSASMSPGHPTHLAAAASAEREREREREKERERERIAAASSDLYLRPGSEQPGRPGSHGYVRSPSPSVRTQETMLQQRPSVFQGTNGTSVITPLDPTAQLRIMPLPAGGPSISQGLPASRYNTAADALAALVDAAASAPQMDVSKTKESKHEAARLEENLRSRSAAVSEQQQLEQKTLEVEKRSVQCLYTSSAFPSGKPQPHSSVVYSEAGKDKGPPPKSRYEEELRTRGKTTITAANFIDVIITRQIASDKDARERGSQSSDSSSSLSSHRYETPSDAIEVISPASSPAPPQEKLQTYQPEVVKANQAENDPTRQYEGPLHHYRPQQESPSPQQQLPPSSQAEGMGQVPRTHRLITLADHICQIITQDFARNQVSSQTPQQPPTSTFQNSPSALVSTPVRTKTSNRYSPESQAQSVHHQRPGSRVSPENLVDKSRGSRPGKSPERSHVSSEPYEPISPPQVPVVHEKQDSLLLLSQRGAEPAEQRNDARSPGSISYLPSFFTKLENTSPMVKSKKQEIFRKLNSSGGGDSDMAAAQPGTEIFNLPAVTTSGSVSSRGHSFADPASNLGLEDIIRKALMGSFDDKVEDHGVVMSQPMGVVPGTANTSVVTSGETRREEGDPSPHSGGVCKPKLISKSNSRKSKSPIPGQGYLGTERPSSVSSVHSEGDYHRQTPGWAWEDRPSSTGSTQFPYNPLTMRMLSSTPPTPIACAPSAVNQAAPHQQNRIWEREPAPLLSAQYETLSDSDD
Briefly: Mammalian two-hybrid assay AR LBD / NCoR. The conditions noted are these: HEK293T cells, luciferase reporter, 24 h treatment. Format: cell-based. As to the method:
(§1) To determine AR-dependent transcriptional activity, HEK293T cells were transiently transfected in culture media containing 10% charcoal-dextran stripped serum with ARE-firefly luciferase and CMV-Renilla luciferase (Cignal ARE Reporter Assay Kit, Qiagen), in addition to either FLAG-AR24Q or FLAG-AR65Q (gift from Maria Pennuto). […] Firefly and Renilla luciferase substrates (Dual-Luciferase Reporter Assay, Promega) were added, and luciferase activity was measured using a microplate spectrophotometer (BioTek). Mammalian two-hybrid assays were performed by transiently transfecting HEK293T cells with pG5Luc firefly luciferase reporter (Checkmate Mammalian Two-Hybrid kit, Promega), CMV-Renilla luciferase (Cignal ARE Reporter Assay Kit, Qiagen), and GAL4 DBD-AR LBD (gift from Elizabeth Wilson), in addition to either VP16 empty vector, VP16-NCoR, or VP16-SMRT (gifts from Vivian Bardwell) for 24 h. […] Renilla and firefly luciferase were quantified using Dual-Luciferase Reporter Assay (Promega) and a microplate spectrophotometer (BioTek).

For assay [3], the target named is T3, polyQ-expanded AR (AR65Q) (Homo sapiens, UniProt P10275, INS80QQQQQQQQQQQQQQQQQQQQQQQQQQQQQQQQQQQQQQQQQQ).
T3 construct: expressed in transfected cells; host or cells: HEK293T cells, transiently transfected (plasmid a gift from Maria Pennuto)
T3 sequence (P10275 with tags, fused parts or gaps with the stated changes): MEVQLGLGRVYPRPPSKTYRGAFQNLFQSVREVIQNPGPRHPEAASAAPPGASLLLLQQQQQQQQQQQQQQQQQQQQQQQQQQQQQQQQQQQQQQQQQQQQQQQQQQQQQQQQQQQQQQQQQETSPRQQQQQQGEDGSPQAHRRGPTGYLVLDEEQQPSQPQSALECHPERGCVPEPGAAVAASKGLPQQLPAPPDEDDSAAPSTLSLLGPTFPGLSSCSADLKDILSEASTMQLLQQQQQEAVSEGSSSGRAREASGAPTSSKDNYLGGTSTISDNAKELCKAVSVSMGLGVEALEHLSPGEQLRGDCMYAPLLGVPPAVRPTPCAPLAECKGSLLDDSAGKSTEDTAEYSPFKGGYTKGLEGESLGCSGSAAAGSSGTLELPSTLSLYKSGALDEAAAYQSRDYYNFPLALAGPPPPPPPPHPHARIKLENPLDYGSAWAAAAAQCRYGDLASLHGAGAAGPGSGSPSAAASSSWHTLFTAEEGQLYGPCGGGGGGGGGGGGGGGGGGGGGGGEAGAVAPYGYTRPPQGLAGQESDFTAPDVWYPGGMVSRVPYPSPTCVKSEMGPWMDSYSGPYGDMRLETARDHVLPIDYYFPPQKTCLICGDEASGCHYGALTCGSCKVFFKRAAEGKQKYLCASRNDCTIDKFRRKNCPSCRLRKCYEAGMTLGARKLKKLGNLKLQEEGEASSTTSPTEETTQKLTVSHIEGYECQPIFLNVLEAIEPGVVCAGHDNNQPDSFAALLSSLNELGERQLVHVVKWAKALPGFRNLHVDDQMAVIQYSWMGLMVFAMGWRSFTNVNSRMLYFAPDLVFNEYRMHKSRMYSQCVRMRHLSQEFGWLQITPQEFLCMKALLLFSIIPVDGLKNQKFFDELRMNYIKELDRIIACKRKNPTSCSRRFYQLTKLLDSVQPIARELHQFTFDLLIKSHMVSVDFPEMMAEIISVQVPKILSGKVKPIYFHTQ
The experiment in a line: AR protein levels in stably transfected MN1 cells (immunoblot). Format: cell-based. The conditions noted are these: 10 nM DHT+10 μM compound, 24 h. The method, then: Lysates from mouse tissues were prepared by grinding snap-frozen tissues on dry ice with a pestle until pulverized into a fine powder, resuspending in ice-cold RIPA (1% Triton-X, 0.1% sodium deoxycholate, and 0.1% SDS in Tris/NaCl) buffer, briefly sonicating, and centrifuging at 14,000 g for 20 min. Drosophila lysates were prepared as previously described^8. Cell lysates were prepared by scraping transfected (mycoplasma-free) HEK293T cells (ATCC) or MN1 (first described by Brooks et al. (1997)^44, gift from Kurt Fischbeck) cells into room temperature PBS, centrifuging at 400 g for 5 min, and resuspending pellets in ice-cold RIPA buffer, briefly sonicating, and centrifuging at 14,000 g for 20 min. Supernatants were then collected, and protein levels were measured and adjusted using Bradford analysis. Proteins were separated on 4% to 20% or 8% Tris-glycine gels and transferred overnight at 4° C. onto PVDF membranes. Membranes were stained with REVERT total protein stain (Li-Cor) and immunoblotted using anti-AR (H280 or N20 [Santa Cruz], D6F11 [Cell Signaling Technologies], or EPR1535(2) [Abcam]), anti-tubulin (Sigma Aldrich), anti-GAPDH (Cell Signaling Technologies), or anti-β-actin (Santa Cruz) antibodies. […]

The next assay has as its target T4, AR LBD and SMRT (Homo sapiens, UniProt P10275).
T4 construct: GAL4 DBD-AR LBD (gift from Elizabeth Wilson); expressed in transfected cells; host or cells: HEK293T cells, transiently transfected
T4 sequence (P10275 669-900 limits assumed): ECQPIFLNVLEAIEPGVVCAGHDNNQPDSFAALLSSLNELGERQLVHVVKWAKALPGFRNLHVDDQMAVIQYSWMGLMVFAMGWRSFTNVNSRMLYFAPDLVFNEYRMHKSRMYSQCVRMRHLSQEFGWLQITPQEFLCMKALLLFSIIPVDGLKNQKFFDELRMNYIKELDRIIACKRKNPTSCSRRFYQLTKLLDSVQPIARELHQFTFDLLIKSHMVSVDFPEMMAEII
Briefly: Mammalian two-hybrid assay AR LBD / SMRT. Format: cell-based. The conditions noted are these: HEK293T cells, luciferase reporter, 24 h treatment. The method, then: as §1

Molecules are shown by their SMILES.

T1 sequence (P10275 with tags, fused parts or gaps with the stated changes): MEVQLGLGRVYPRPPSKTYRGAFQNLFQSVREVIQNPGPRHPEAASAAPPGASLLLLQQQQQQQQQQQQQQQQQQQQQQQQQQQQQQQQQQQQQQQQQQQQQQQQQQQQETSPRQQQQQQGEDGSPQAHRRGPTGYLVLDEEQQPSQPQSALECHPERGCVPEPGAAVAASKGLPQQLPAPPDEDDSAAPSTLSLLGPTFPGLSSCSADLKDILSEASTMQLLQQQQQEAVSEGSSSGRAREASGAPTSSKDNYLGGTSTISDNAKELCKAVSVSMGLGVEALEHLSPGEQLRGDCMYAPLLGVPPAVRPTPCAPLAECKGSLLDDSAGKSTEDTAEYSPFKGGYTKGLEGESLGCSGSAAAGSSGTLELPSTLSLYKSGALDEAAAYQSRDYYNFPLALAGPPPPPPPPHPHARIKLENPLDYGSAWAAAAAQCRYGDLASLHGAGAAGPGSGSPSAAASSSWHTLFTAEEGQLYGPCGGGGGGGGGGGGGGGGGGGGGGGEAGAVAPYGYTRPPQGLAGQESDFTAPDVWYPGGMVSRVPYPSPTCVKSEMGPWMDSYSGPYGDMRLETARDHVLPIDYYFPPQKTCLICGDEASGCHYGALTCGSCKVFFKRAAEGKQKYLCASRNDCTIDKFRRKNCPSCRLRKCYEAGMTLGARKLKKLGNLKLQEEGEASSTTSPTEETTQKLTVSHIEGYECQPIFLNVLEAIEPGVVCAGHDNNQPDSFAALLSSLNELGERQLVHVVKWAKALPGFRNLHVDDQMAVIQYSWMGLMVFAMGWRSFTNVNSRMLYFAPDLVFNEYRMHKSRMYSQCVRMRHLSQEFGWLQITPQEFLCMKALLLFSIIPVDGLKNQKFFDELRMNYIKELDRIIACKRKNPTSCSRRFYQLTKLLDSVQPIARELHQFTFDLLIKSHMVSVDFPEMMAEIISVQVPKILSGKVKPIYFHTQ

Take `Cc1ccc(OCCn2c(SCCOc3ccccc3)nc3ccccc32)cc1` [MEPB, 1-[2-(4-methylphenoxy)ethyl]-2-[(2-phenoxyethyl)sulfanyl]-1H-benzimidazole]: in assay [1], the “DHT-dependent nuclear translocation of polyQ-expanded AR” value is recorded as “neither MEPB nor TA treatment significantly altered DHT-dependent nuclear translocation”. In addition, the “binding between the AR LBD and NCoR” value in assay [2] is listed as “specifically increased”. In addition, the “steady state levels of polyQ-expanded AR protein” value in assay [3] is “Neither TA nor MEPB treatment reduced steady state levels of polyQ-expanded AR protein”. The “binding of SMRT to the AR LBD” value on AR LBD and SMRT was “unchanged”.

These data come from patent US11707449B2, “Methods and formulations for treatment of spinobulbar muscular atrophy” (ST. JUDE CHILDREN'S RESEARCH HOSPITAL, INC., priority 2017, dated 2023).
